# According to US11109593B2, “Isoxazolin-5-one derivative and herbicide containing same as active ingredient” (HOKKO CHEMICAL INDUSTRY CO., LTD., priority 2017, dated 2021):
# What was measured:
# Format in all cases: in vivo
# [1] = tested on: broad leaf weeds (Lindernia pyxidaria and Monochoria vaginalis); assay: Test Example 1: herbicidal effect test by treatment of rice paddy soil (immediately after seeding); conditions: 120 g/10a active ingredient, dry weight vs untreated area, 14 days after treatment
# Procedure, shortened: (§1)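 Applied at 120 g a.i./10 ares as diluted emulsion dropped into flooded (~3 cm) paddy soil pots right after sowing seeds 0–1 cm deep; greenhouse, two replicates. At day 14, dry weight of treated versus untreated plants gives % herbicidal rate.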
# Scirpus juncoides [2] = assay: as above; conditions: 120 g/10a active ingredient, dry weight vs untreated area, 14 days after treatment
# Procedure, shortened: as §1
# Echinochloa crus-galli [3] = assay: as above; conditions: 120 g/10a active ingredient, dry weight vs untreated area, 14 days after treatment
# Procedure, shortened: as §1
# [4] = tested on: broad leaf weeds (Lindernia pyxidaria and Monochoria vaginalis); assay: Test Example 2: herbicidal effect test by treatment during growing period in paddy rice cultivation (seven days after seeding); conditions: 120 g/10a active ingredient, assessed 14 days after treatment, dry weight vs untreated area
# Procedure, shortened: (§2)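 Seeds sown 0–1 cm deep in puddled, fertilised paddy soil with about 3 cm standing water in a glass greenhouse. Diluted emulsion dropped into the water seven days after seeding at 120 g active ingredient per 10 ares. Herbicidal rate (%) from mean dry weight vs untreated, duplicate, 14 days after treatment.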
# Scirpus juncoides [5] = assay: as above; conditions: 120 g/10a active ingredient, assessed 14 days after treatment, dry weight vs untreated area
# Procedure, shortened: as §2
# Echinochloa crus-galli [6] = assay: as above; conditions: 120 g/10a active ingredient, assessed 14 days after treatment, dry weight vs untreated area
# Procedure, shortened: as §2
# Chenopodium album [7] = assay: Test Example 3: herbicidal effect test by treatment of dry field farming soil (one day after seeding); conditions: 120 g/10a active ingredient, evaluated 14 days after treatment
# Procedure, shortened: (§3)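 Alluvial dry-field soil in pots, top 1 cm mixed with 20 seeds per weed species. One day after seeding, the water-diluted emulsion was sprayed onto the soil surface at 100 L per 10 ares (120 g active ingredient per 10 ares). Duplicate pots; herbicidal rate (%) from plant dry weight versus untreated, 14 days after treatment.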
# Amaranthus viridis [8] = assay: as above; conditions: 120 g/10a active ingredient, evaluated 14 days after treatment
# Procedure, shortened: as §3
# southern crabgrass [9] = assay: as above; conditions: 120 g/10a active ingredient, evaluated 14 days after treatment
# Procedure, shortened: as §3
# Echinochloa crus-galli [10] = assay: as above; conditions: 120 g/10a active ingredient, evaluated 14 days after treatment
# Procedure, shortened: as §3
# Chenopodium album [11] = assay: Test Example 4: herbicidal effect test by treatment of leave and stem in dry field farming (seven days after seeding); conditions: 120 g/10a active ingredient; emulsion sprayed seven days after seeding; evaluated 14 days after treatment
# Procedure, shortened: (§4)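 Twenty seeds per species were mixed into the top 1 cm of alluvial soil in 36 cm^2 pots; emulsions were sprayed seven days after seeding at 100 L per 10 ares (120 g active ingredient per 10 ares). Herbicidal rate (%) = {1 − treated/untreated mean dry weight} × 100, 14 days after treatment, duplicate.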
# Amaranthus viridis [12] = assay: as above; conditions: 120 g/10a active ingredient; emulsion sprayed seven days after seeding; evaluated 14 days after treatment
# Procedure, shortened: as §4
# southern crabgrass [13] = assay: as above; conditions: 120 g/10a active ingredient; emulsion sprayed seven days after seeding; evaluated 14 days after treatment
# Procedure, shortened: as §4
# Echinochloa crus-galli [14] = assay: as above; conditions: 120 g/10a active ingredient; emulsion sprayed seven days after seeding; evaluated 14 days after treatment
# Procedure, shortened: as §4
Structure (SMILES),Herbicidal rate (%) Lindernia pyxidaria [1] [%],Herbicidal rate (%) Monochoria vaginalis [1] [%],Herbicidal rate (%) Scirpus juncoides (Scirpus juncoides [2]) [%],Herbicidal rate (%) Echinochloa crus-galli (Echinochloa crus-galli [3]) [%],Herbicidal rate (%) Lindernia pyxidaria [4] [%],Herbicidal rate (%) Monochoria vaginalis [4] [%],Herbicidal rate (%) Scirpus juncoides (Scirpus juncoides [5]) [%],Herbicidal rate (%) Echinochloa crus-galli (Echinochloa crus-galli [6]) [%],"herbicidal rate, Chenopodium album (Chenopodium album [7]) [%]","herbicidal rate, Amaranthus viridis (Amaranthus viridis [8]) [%]","herbicidal rate, southern crabgrass (southern crabgrass [9]) [%]","herbicidal rate, Echinochloa crus-galli (Echinochloa crus-galli [10]) [%]","herbicidal effect (herbicidal rate), Chenopodium album (Chenopodium album [11]) [%]","herbicidal effect (herbicidal rate), Amaranthus viridis (Amaranthus viridis [12]) [%]","herbicidal effect (herbicidal rate), southern crabgrass (southern crabgrass [13]) [%]","herbicidal effect (herbicidal rate), Echinochloa crus-galli (Echinochloa crus-galli [14]) [%]"
Cc1c(Cc2ccccc2N(C(=O)C2CC2)S(=O)(=O)C(F)(F)F)c(=O)on1C(C)c1ccccc1 (centres unmarked) [Compound 1-416],90,90,90,90,90,90,90,90,90,90,90,90,40,40,90,90
CCCCC(C)n1oc(=O)c(Cc2ccccc2N(S(=O)(=O)C(F)(F)F)S(=O)(=O)C(F)(F)F)c1C (centres unmarked) [Compound 1-977],100,100,90,100,80,90,90,100,50,70,80,80,80,60,80,90
C=C(C)Cn1oc(=O)c(Cc2ccccc2NS(=O)(=O)C(F)(F)F)c1C [Compound 1-137],90,70,90,90,40,60,80,90,40,40,50,70,0,80,0,80
COCC(C)n1oc(=O)c(Cc2ccccc2N(C(=O)c2ccccc2)S(=O)(=O)C(F)(F)F)c1C (centres unmarked) [Compound 1-479],90,90,90,90,90,90,90,90,90,90,90,90,40,40,90,90
Cc1c(Cc2ccccc2N(C(=O)c2ccccc2)S(=O)(=O)C(F)(F)F)c(=O)on1C(C)(C)C [Compound 1-473],90,90,90,90,90,90,90,90,90,90,90,90,40,40,90,90
CC(=O)N(c1ccccc1Cc1c(C)n(C(C)(C)C)oc1=O)S(=O)(=O)C(F)(F)F [Compound 1-293],90,90,90,90,90,90,90,90,90,90,90,90,40,40,90,90
Cc1c(Cc2ccccc2NS(=O)(=O)C(F)(F)F)c(=O)on1C(c1ccccc1)C(C)C (centres unmarked) [Compound 1-213],90,90,90,100,70,80,80,90,100,100,100,100,50,40,90,90
CCC(C)n1oc(=O)c(Cc2ccccc2N(C(=O)C2CCCCC2)S(=O)(=O)C(F)(F)F)c1C (centres unmarked) [Compound 1-432],90,90,90,90,90,90,90,90,90,90,90,90,40,40,90,90
